Experiments:
[1] = Adverse events and clinical/laboratory evaluation in the 14C-EC ADME study; type: in vivo, humans; conditions: human
Procedure: The study was a single-center, open-label, and non-randomized study with two distinct elements: a run-in phase to establish a more defined dietary background of dietary flavanols and procyanidins and the subsequent ^14C-EC ADME study (Fig. 1B). Participants (n = 12) were enrolled in the run-in phase (day –17 to day –4) and asked to supplement their daily diet for 14 days with a commercially available flavanol-containing cocoa-based drink (250 mg cocoa flavanols; 40 mg of EC). This was followed by a 4-day period (day –4 to 0) of a low-flavanol diet. One day (study day -1) prior to the initialization of the ^14C-EC ADME study, all eligible participants were accommodated under controlled conditions at a metabolic research facility (Covance Clinical Pharmacology Inc., Wisconsin) until completion of the study. Based on the compliance of the first part of the study, 8 participants were selected to participate in the ^14C-EC ADME study. During the ^14C-EC ADME study (Fig. 1B.), volunteers received a low-flavanol, standardized high-fiber diet, and were encouraged to maintain an adequate level of hydration (water ad libitum). Volunteers were asked to fast for 8 h before the initiation of the study and for at least 4 h after the intake of the ^14C-EC test drink (water ad libitum). Venous blood samples were taken using Vacutainer collection tubes, containing potassium EDTA at 0 h (just prior to ^14C-EC ingestion), and at 0.25, 0.5, 1, 1.5, 2, 2.5, 3, 4, 6, 8, 10, 12, 16, 24, 36, and 48 h after test drink consumption. Plasma was obtained by whole blood centrifugation at 2000 × g for 15 min at 5 °C, separated into aliquots and stored at −80 °C until analysis. All urine and feces from the time just prior to the consumption of the test drink were collected at different time intervals for radioactivity and metabolite profiling. Clinical parameters and laboratory evaluations of participants were assessed at screening, on study day –1, and after completing the study, as detailed in Supplementary Methods. […]

[2] = Metabolite profiling and pharmacokinetics in plasma (targeted HPLC-MS2); type: in vivo, humans; conditions: human, oral 60 mg 14C-EC
Procedure: The study was a single-center, open-label, and non-randomized study with two distinct elements: a run-in phase to establish a more defined dietary background of dietary flavanols and procyanidins and the subsequent ^14C-EC ADME study (Fig. 1B). Participants (n = 12) were enrolled in the run-in phase (day –17 to day –4) and asked to supplement their daily diet for 14 days with a commercially available flavanol-containing cocoa-based drink (250 mg cocoa flavanols; 40 mg of EC). This was followed by a 4-day period (day –4 to 0) of a low-flavanol diet. One day (study day -1) prior to the initialization of the ^14C-EC ADME study, all eligible participants were accommodated under controlled conditions at a metabolic research facility (Covance Clinical Pharmacology Inc., Wisconsin) until completion of the study. Based on the compliance of the first part of the study, 8 participants were selected to participate in the ^14C-EC ADME study. During the ^14C-EC ADME study (Fig. 1B.), volunteers received a low-flavanol, standardized high-fiber diet, and were encouraged to maintain an adequate level of hydration (water ad libitum). Volunteers were asked to fast for 8 h before the initiation of the study and for at least 4 h after the intake of the ^14C-EC test drink (water ad libitum). Venous blood samples were taken using Vacutainer collection tubes, containing potassium EDTA at 0 h (just prior to ^14C-EC ingestion), and at 0.25, 0.5, 1, 1.5, 2, 2.5, 3, 4, 6, 8, 10, 12, 16, 24, 36, and 48 h after test drink consumption. Plasma was obtained by whole blood centrifugation at 2000 × g for 15 min at 5 °C, separated into aliquots and stored at −80 °C until analysis. All urine and feces from the time just prior to the consumption of the test drink were collected at different time intervals for radioactivity and metabolite profiling. Clinical parameters and laboratory evaluations of participants were assessed at screening, on study day –1, and after completing the study, as detailed in Supplementary Methods.
Samples were processed as described previously[18] and analyzed by HPLC-MS^2 in conjunction with an on-line HPLC-radioactivity monitor as described in SI Materials and Methods. Identification of metabolites involved comparing the retention time with authentic standards and MS^2 fragmentation patterns (Supplementary Methods). Quantification of metabolites in urine was based on HPLC radioactivity peak area (limit of quantification: 10^3 dpm). Due to the low levels of radioactivity, quantification in plasma was based on targeted HPLC-MS^2 using standard curves obtained with authentic standards (Supplementary Methods).
Data are expressed as mean values ± standard error, or as otherwise specified. Pharmacokinetic parameters were calculated using non-compartmental analysis with WinNonlin (Pharsight Corporation, Version 5.2).
5-20% acetonitrile in 0.1 % formic acid. Supplementary Table S2 provides details of HPLC retention times and the m/z values that were monitored.
Supplementary Table S2. Detection of (−)-epicatechin metabolites. HPLC retention times and selected reaction monitoring ions used for the HPLC-MS analysis of (−)-epicatechin metabolites in plasma. […]
Structurally related (-)-epicatechin metabolites in humans: assessment using de novo chemically synthesized authentic standards. Free Radic Biol Med 52, 1403- […]
3 Borges, G. et al. Bioavailability of multiple components following acute ingestion of a polyphenol-rich juice drink. Mol Nutr Food Res 54 Suppl 2, S268-277, […]
4 Stalmach, A. et al. Absorption, metabolism, and excretion of green tea flavan-3-ols in humans with an ileostomy. Mol Nutr Food Res 54, 323-334,

[3] = SREM profile in plasma after intragastric 14C-EC, mouse; type: in vivo, C57BL/6 mice; conditions: 30 min after 2 mg/kg BW intragastric 14C-EC
Procedure: To assess the profile of SREMs in rodents, Sprague-Dawley rats (male, 9–10 week old, 270 ± 16 g of BW) and C57BL/6 mice (20 ± 1 g) were administered by gavage 2 mg/kg BW of ^14C-EC (corresponding to ≈10.6 μCi/rat and 6.7 μCi/mouse). Blood samples were collected 30 min after administration. Plasma was obtained by centrifugation at 4 °C for 15 min at 1800xg, separated in aliquots and analyzed by HPLC as described previously[18] with an on-line radioactivity detector (Radiomatic 610TR Flow System Analyzer, PerkinElmer, Inc., Waltham, Mass).

Levels of unmetabolized EC in plasma and urine [2]: below the limits of detection | Detection in plasma [3]: No unmetabolized EC was detected
Compound: Oc1cc(O)c2c(c1)O[C@H](c1ccc(O)c(O)c1)[C@H](O)C2 [^14C-EC, [2-^14C](−)-epicatechin]
Severity of reported adverse events [1]: all reported adverse events were mild in severity | Number of adverse events reported ([1]; reported by 3 different participants, none related to study treatment): 6 | Adverse events related to the study treatment ([1]; single oral 60 mg, 300 μCi): No adverse events related to the study treatment were recorded | Clinical changes in laboratory evaluations, physical examinations and 12-lead electrocardiograms ([1]; single oral 60 mg, 300 μCi): no significant clinical changes

— paper PMC4929566, “The metabolome of [2-^14C](−)-epicatechin in humans: implications for the assessment of efficacy, safety, and mechanisms of action of polyphenolic bioactives” (Scientific Reports, 2016)
